# pIC50: −log10 of the molar value.
# What was measured:
# [1] = Long-term/accelerated stability; assay type: physicochemical; conditions: for Crystal form: up to 3 months
# CYP3A4 = CYP3A4 (Homo sapiens (Human), UniProt P08684); assay: Inhibition of site of metabolism of testosterone in human liver microsome CYP3A4; assay type: in vitro ADME; conditions: 30 min
# Protocol: • 1. Phosphate buffer (20×PBS, purchased from Sangon); • 2. NADPH (ACROS, A2646-71-1); • 3. Human liver microsome (Corning Gentest, Cat No. 452161, Lot No. 905002, Donor36); • 4. ABI QTrap 4000 LC-MS System (AB Sciex); • 5. ZORBAX Extend-C18, 3×50 mm, 3.5 m (Agilent, USA); • 6. CYP probe substrate (testosterone, Vocko, CAS No. [58-22-0]/75 μM) and positive control inhibitor (ketoconazole, SIGMA, Cat No. K1003-100MG).
# A 100 mM PBS buffer was prepared. A 0.25 mg/mL microsome solution, a 7.5 mM MgCl2 and a 5 mM NADPH solution were prepared using the buffer. A30 mM stock solution was diluted with DMSO to obtain 30 mM, 10 mM, 3 mM, 1 mM, 0.3 mM, 0.03 mM, 0.003 mM and 0 mM serial solutions I, which were further diluted 200-fold with phosphate buffer (PBS) to obtain serial test solutions II (150, 50, 15, 5, 1.5, 0.15, 0.015 and 0 μM). A testosterone working solution was diluted with PBS to 375 μM. 40 μL of a 0.25 mg/mL microsome solution prepared in 7.5 mM MgCl2 and 20 μL of each of the 375 μM testosterone working solution and the compound working solutions (150, 50, 15, 5, 1.5, 0.15, 0.015 and 0 μM) were measured out and well mixed. […]
# The IC50 value of the drug for the site of metabolism of testosterone in CYP3A4 was calculated by Graphpad Prism and is shown in Table 6.
# MCF-7 cells = assay: Inhibition of proliferation of MCF-7 cells (ATP method); assay type: cell-based; conditions: Homo sapiens, MCF7; 72 h, Cell Titer-Glo; read-out: IC50, inhibitory effect on proliferation of MCF-7 cells
# Protocol: This experiment was intended to test the inhibitory effect of the compound disclosed herein on the proliferation of MCF-7 cells by using the ATP method, and to evaluate the in vitro activity of the compound according to the IC50 value.
# MCF-7 cells (TCHu74, National Collection of Authenticated Cell Cultures) were seeded into a 96-well plate with an MEM (hyclone, SH30024.01B) medium containing 10% FBS (Gibco, 10099-141), 1% sodium pyruvate (sigma, S8636) and 1% non-essential amino acid (sigma, M7145) at a density of 4,000 cells/well and cultured at 37° C. with 5% CO2. 20 mM stock solution of the compound was prepared, serially diluted with 100% DMSO to a final concentration of 1000×, and then diluted 20-fold with a medium containing 2% FBS. After the cells were cultured for 24 h, the medium was removed. 90 μL of the medium containing 2% FBS and 10 μL of a drug were added to each well, and 10 μL of DMSO was added to the control group. The mixtures were well mixed by gentle shaking. The blank group contained only 100 μL of the medium containing 2% FBS. The cells were cultured in an incubator at 37° C. with 5% CO2 for 72 h, and then 50 μL of mixed Cell Titer-Glo (Promega, G7571) was added to each well. The mixtures were well mixed by shaking and let stand at room temperature for 10 min, and the chemiluminescence signal value was determined. […]
# ER (estrogen receptor) = ER (estrogen receptor) (Homo sapiens (Human), UniProt P03372); assay: Inhibition of binding of E to ER (MCF-7/ERE-luciferase reporter); assay type: cell-based; conditions: MCF-7/ERE-luciferase cells, 0.1 nM estradiol, 24 h; read-out: IC50, inhibitory effect on the binding of E to ER
# ER (estrogen receptor), sequence (P03372 whole entry): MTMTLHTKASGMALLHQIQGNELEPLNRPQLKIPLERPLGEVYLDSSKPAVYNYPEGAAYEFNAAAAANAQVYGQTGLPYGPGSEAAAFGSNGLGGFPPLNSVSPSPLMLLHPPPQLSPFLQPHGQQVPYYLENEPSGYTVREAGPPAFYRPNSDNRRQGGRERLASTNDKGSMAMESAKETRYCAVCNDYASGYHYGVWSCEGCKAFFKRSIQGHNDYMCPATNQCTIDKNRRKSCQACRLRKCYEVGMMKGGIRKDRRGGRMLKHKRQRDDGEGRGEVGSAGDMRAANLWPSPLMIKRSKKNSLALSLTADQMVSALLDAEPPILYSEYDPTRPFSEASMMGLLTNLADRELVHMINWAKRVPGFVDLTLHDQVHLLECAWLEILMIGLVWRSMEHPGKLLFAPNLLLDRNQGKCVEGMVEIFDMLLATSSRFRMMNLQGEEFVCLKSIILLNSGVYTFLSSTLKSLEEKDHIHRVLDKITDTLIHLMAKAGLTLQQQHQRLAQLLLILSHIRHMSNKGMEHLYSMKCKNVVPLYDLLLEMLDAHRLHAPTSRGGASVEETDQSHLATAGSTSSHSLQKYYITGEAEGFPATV
# Protocol: The compound of the present disclosure can inhibit the binding of E (estrogen) to ER (estrogen receptor), thereby blocking the binding of the complex of E and ER to ERE (estrogen response element), and consequently the expression of downstream luciferase proteins. The inhibitory effect of the compound of the present disclosure on the binding of E to ER was tested by using the following method.
# An ERE was cloned upstream of the luciferase gene, and MCF-7/ERE-luciferase monoclonal cells were selected by transfection of MCF-7 (TCHu74, National Collection of Authenticated Cell Cultures). The MCF-7/ERE-luciferase cells were seeded into a 96-well plate with an MEM (hyclone, SH30024.01B) medium containing 10% charcoal stripped FBS (Moregate, FBSF), 1% sodium pyruvate (sigma, S8636), 1% non-essential amino acids (sigma, M7145) and 500 μg/mL G418 at a density of 30,000 cells/well and cultured at 37° C. with 5% CO2. […] The plate was let stand at room temperature in the dark for 10-15 min, and the chemiluminescence signal value was determined.
# The inhibitory effect of the compound of the present disclosure on the binding of E to ER was determined through the above experiment. The chemiluminescence signal value was analyzed against the compound concentration (in log form) using Graphpad Prism, and the IC50 value of the compound was obtained.
# CYP3A4, sequence (P08684 whole entry): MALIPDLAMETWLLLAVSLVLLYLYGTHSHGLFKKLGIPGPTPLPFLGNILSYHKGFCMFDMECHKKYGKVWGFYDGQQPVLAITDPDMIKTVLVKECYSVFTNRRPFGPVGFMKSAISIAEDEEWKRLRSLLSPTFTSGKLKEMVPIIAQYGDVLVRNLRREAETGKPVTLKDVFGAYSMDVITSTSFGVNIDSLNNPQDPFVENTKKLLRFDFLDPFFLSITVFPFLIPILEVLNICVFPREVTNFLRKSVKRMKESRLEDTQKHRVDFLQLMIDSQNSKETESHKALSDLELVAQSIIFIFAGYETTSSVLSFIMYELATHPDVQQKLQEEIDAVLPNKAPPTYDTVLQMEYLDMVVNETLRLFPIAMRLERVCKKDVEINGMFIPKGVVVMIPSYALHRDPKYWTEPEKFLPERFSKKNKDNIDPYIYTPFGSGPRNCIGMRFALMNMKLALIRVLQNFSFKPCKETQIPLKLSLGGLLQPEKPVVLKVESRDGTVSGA
smiles,measurement,setting,value
"[2H]C1([2H])Oc2cc3c(cc2O1)[C@@H](c1ccc(NC2CN(CCCF)C2)cn1)N(CC(F)(F)CO)[C@H](C)C3 [Compound 1, 2,2-Difluoro-3-((5S,7R)-5-(5-((1-(3-fluoropropyl)azetidin-3-yl)amino)pyridin-2-yl)-7-methyl-7,8-dihydro-[1,3]dioxolo[4,5-g]isoquinolin-6(5H)-yl-2,2-d2)propan-1-ol]",Purity (%) 1 month,[1]; 25° C./60% RH,97.1%
same,Purity (%) 2 months,[1]; 25° C./60% RH,96.7%
same,Purity (%) 3 months,[1]; 25° C./60% RH,96.7%
same,Purity (%) 7 days,[1]; 25° C./60% RH,97.1%
same,Purity (%) 14 days,[1]; 25° C./60% RH,97.0%
same,Purity (%) Initial,[1]; 25° C./60% RH,97.1%
same,Crystal form,[1]; 25° C./60% RH,Unchanged
same,Purity (%) 1 month,[1]; 40° C./75% RH,96.5%
same,Purity (%) 2 months,[1]; 40° C./75% RH,95.5%
same,Purity (%) 3 months,[1]; 40° C./75% RH,94.9%
same,Purity (%) 7 days,[1]; 40° C./75% RH,96.8%
same,Purity (%) 14 days,[1]; 40° C./75% RH,96.6%
same,Purity (%) Initial,[1]; 40° C./75% RH,97.1%
same,Crystal form,[1]; 40° C./75% RH,Unchanged
same,pIC50,CYP3A4,< 4.52
same,pIC50,MCF-7 cells,9.54
same,pIC50,ER (estrogen receptor),9.16
